This note sets out measurements from ChEMBL document CHEMBL1134339, “New 1-aryl-3-(4-arylpiperazin-1-yl)propane derivatives, with dual action at 5-HT1A serotonin receptors and serotonin transporter, as a new class of antidepressants” (J Med Chem, 2001).

Assay [1] deals with Mus musculus. The experiment in a line: Time-dependent effect on 8-OH-DPAT-induced hypothermia (change in body temperature) after 60 min, in mice at 0.5 mg/kg dose. Type of assay: functional.
Assay [2] addresses T1, 5-hydroxytryptamine receptor 1A (Homo sapiens) (UniProt P08908).
T1 sequence (whole entry): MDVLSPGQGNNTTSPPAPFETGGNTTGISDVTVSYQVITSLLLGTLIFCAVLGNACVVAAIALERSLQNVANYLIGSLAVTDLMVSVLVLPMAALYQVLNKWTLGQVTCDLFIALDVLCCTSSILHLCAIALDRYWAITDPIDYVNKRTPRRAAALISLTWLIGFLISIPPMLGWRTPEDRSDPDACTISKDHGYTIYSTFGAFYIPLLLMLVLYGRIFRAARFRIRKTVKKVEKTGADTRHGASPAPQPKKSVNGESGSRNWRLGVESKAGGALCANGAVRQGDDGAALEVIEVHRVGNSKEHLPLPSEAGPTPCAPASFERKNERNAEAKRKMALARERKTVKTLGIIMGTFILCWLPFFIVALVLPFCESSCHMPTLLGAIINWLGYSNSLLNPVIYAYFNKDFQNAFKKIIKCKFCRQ
To be noted: HeLa.
Description: Effect on Forskolin-Stimulated cAMP formation, in HeLa cells transfected with the 5-HT 1A receptor at 1 uM concentration

Assay [3] has as its system Mus musculus. The experiment in a line: Time-dependent effect on 8-OH-DPAT-induced hypothermia (change in body temperature) after 15 min, in mice at 0.1 mg/kg dose. Type of assay: functional.
Assay [4] has as its system Mus musculus. The experiment in a line: Time-dependent effect on 8-OH-DPAT-induced hypothermia (change in body temperature) after 60 min, in mice at 0.1 mg/kg dose. Type of assay: functional.
The subject of assay [5] is Mus musculus. The experiment in a line: Time-dependent effect on 8-OH-DPAT-induced hypothermia (change in body temperature) after 15 min, in mice at 0.5 mg/kg dose. In kind it is functional.
The subject of assay [6] is Mus musculus. The assay can be described thus: Time-dependent effect on 8-OH-DPAT-induced hypothermia (change in body temperature) after 30 min, in mice at 0.1 mg/kg dose. In kind it is functional.
The subject of assay [7] is Mus musculus. The assay can be described thus: Effect on immobility time in the forced swimming test (FST) in mice at 0.1 mg/kg dose. In kind it is functional.
Assay [8] concerns Mus musculus. The experiment in a line: Time-dependent effect on 8-OH-DPAT-induced hypothermia (change in body temperature) after 30 min, in mice at 0.5 mg/kg dose. In kind it is functional.
For assay [9], the system named is Mus musculus. The assay can be described thus: Effect on immobility time in the forced swimming test (FST) in mice at 0 mg/kg dose. Type of assay: functional.
Assay [10] deals with Rattus norvegicus. The assay can be described thus: Effect on helpless behavior in rats and the number of escape failures was determined in shuttle-box session-1 (SB-1) at 1 mg/kg dose. Type of assay: functional.
Assay [11] deals with T2, 5-hydroxytryptamine receptor 1A (Rattus norvegicus, UniProt P19327).
T2 sequence (P19327 whole entry): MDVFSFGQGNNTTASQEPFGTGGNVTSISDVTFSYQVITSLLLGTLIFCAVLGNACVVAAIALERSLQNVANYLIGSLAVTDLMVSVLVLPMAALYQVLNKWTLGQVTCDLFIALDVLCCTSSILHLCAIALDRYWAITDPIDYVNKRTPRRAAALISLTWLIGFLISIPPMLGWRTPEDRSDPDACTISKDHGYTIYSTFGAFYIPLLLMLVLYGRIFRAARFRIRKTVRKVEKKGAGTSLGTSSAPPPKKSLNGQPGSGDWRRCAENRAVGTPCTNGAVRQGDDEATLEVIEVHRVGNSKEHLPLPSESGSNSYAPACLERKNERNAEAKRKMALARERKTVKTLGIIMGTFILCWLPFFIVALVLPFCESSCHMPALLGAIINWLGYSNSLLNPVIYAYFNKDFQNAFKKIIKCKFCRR
The experiment in a line: Binding affinity to 5-hydroxytryptamine 1A receptor (5-HT 1A receptor, serotonin receptor) from rat cortex using [3H]8-OH-DPAT as radioligand.

In assay [12] the test system is Mus musculus. The assay can be described thus: Time-dependent effect on 8-OH-DPAT-induced hypothermia (change in body temperature) after 60 min, in mice at 5 mg/kg dose. Type of assay: functional.
For assay [13], the system named is Rattus norvegicus. The assay can be described thus: Effect on helpless behavior in rats and the number of escape failures was determined in shuttle-box session-2 (SB-2) at 1 mg/kg dose. In kind it is functional.
Assay [14] concerns Mus musculus. The experiment in a line: Effect on immobility time in the forced swimming test (FST) in mice at 1 mg/kg dose. In kind it is functional.
Assay [15] has as its system Mus musculus. The experiment in a line: Time-dependent effect on 8-OH-DPAT-induced hypothermia (change in body temperature) after 15 min, in mice at 5 mg/kg dose. Type of assay: functional.
The target of assay [16] is Sodium-dependent serotonin transporter (Rattus norvegicus, UniProt P31652). The experiment in a line: Binding affinity towards Serotonin transporter from rat cortex measured using [3H]paroxetine. To be noted: read-out: Ki.
Chain of Sodium-dependent serotonin transporter (P31652 whole entry): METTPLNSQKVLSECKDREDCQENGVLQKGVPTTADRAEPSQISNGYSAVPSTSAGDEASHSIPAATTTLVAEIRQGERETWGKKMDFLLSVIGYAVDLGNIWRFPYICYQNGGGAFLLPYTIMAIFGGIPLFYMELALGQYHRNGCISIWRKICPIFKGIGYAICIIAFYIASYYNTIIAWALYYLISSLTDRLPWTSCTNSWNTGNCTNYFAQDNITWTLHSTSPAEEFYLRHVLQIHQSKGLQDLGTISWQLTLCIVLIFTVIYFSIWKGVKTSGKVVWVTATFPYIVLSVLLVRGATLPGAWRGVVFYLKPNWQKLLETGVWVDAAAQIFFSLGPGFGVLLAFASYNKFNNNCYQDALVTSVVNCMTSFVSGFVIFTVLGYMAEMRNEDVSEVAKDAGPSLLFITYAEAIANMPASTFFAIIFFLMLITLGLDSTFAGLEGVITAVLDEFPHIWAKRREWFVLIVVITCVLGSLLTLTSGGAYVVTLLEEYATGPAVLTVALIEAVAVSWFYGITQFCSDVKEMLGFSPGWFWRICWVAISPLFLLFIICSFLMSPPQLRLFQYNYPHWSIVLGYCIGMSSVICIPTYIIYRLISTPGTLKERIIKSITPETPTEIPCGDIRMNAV

One may read the Ki as the equilibrium dissociation constant of an inhibitor or competing ligand from its target. For the compound `COc1ccccc1N1CCN(CCC(=O)c2csc3ccccc23)CC1`, the Temperature change in assay [1] is below -0.47 °C; in [3] it was -2.14 °C; in assay [4] it was -1.13 °C; in assay [5] it was below -1.58 °C; in assay [6] it was -1.66 °C; in assay [8], below -0.86 °C. Moreover, the results for the Temperature change in assay [12] and in assay [15] were -1.27 °C and -2.53 °C, respectively. The compound also showed a cAMP in assay [2] of 27 pmol/well. Besides, the Immobility time in assay [7] is 141.4 s; in assay [9] it was 169.4 s; in assay [14], below 77.1 s. For the same compound, the “No. of escape failures” value is on record as below 9.8 in [10] and below 4 in assay [13]. The inhibition constant (Ki) in assay [11] turned out to be 0.044 µM; in [16] it was 0.105 µM.
Turning to `COc1ccccc1N1CCN(CCC(Oc2cccc3ccccc23)c2ccsc2)CC1` (stereo not drawn), the Temperature change was -0.52 °C in assay [1]; -2.12 °C in [3]; -1.16 °C in assay [4]; -1.72 °C in [5]; -1.54 °C in [6]; -1.35 °C in assay [8]. Moreover, the Temperature change in assay [12] was -1.22 °C; in assay [15], -2.73 °C. In assay [2], this compound registered a cAMP of 28.5 pmol/well. Also, the figures for the Immobility time in assay [7], in assay [9] and in [14] were 194.4 s, 157.1 s and below 91.6 s, respectively. Moreover, the “No. of escape failures” value in assay [10] is recorded as 5.8; in assay [13] it was 1.3. The Ki in assay [11] (read-out: Ki) is 0.18 µM; in [16] it was 0.15 µM.
In the case of `COc1ccccc1N1CCN(CCC(O)c2csc3ccccc23)CC1` (stereo not drawn), the Temperature change in assay [1] is -0.63 °C; in assay [3], -1.6 °C; in [4] it was -0.4 °C; in assay [5] it was -1.23 °C; in assay [6], -1.3 °C; in assay [8], -1.38 °C. Also, the Temperature change in assay [12] is -1.16 °C; in [15], -2.2 °C. For the same compound, in assay [2], the cAMP turned out to be 19.1 pmol/well. The Immobility time in assay [7] is given as below 99.5 s; in assay [9], 145 s; in assay [14], 101.8 s. For the same compound, the “No. of escape failures” value in [10] stood at 8; in assay [13] it was 2.3. The inhibition constant (Ki) in assay [11] (read-out: Ki) and in [16] was 0.02 µM throughout.
